Results: BindingDB's records for doi:10.1021/jm00117a021 (Syntex Research, 1988)

Assays:
[1] = molecular target: Adenosylhomocysteinase (Oryctolagus cuniculus); test: Inhibition of S-adenosyl-homocysteine (AdoHcy)hydrolase from rabbit erythrocytes
[2] = molecular target: Adenosylhomocysteinase (Oryctolagus cuniculus); test: as above; remark: listed apart in the source

| IC50 [1] | IC50 [2] | Structure (SMILES) |
| --- | --- | --- |
| 28 µM |  | Nc1ncnc2c1ncn2C1C(O)C(O)C(CO)C1O (configuration not stated) |
|  | 0.04 µM | Nc1ncnc2c1ncn2[C@@H](C=O)O[C@@H](C=O)CO [Adenosine dialdehyde] |
